Results taken from patent US20210317454A1, “USE OF A TLR9 AGONIST IN METHODS FOR TREATING COVID-19” (priority 2020, published 2021).
“Also recorded” adds a separate entry of the source. Where two headings read alike, the source gives them in different places.

Assays:
SARS-CoV2 [1] = type: cell-based
[2] = test system: mediastinal lymph node immune cells; type: in vivo, BL6 mice; details: both pre and post-infection administration; B cells, CD4+, CD8+, granulocytes, macrophages, dendritic cells
Calu3 cells = details: dilutions above this excluded from analyses of conditions 1 and 2
SARS-CoV2 [3] = details: for toxicity in mice: intranasal 2.5 mg/kg, 8 BL6 mice
HCV = details: cited from earlier work
[4] = test system: B16. F10 melanoma mouse models of colon carcinoma pulmonary metastasis; details: intranasal administration at very low doses compared with subcutaneous; cited from earlier work
[5] = test system: B16. F10 melanoma pulmonary metastasis; details: intranasal versus subcutaneous; cited from earlier work
tumor microenvironment = details: cited from earlier work

tilsotolimod: phosphorothioate oligonucleotide agonist of TLR9, sequence 5LTCG1AACG1TTCG1-X-G1CTTG1CAAG1CT-5′, X glycerol linker, G1 2′-deoxy-7-deazaguanosine (SEQ ID NO. 1) (DNA TCGAACGTTCGGCTTGCAAGCT; phosphorothioate, 7-deazaG, glycerol-linked 3'-3' dimer; (3)..(3) 2′-deoxy-7-deazaguanosine; (7)..(7) 2′-deoxy-7-deazaguanosine; (11)..(12) Linked by is a glycerol linker; (11)..(11) 2′-deoxy-7-deazaguanosine; (12)..(12) 2′-deoxy-7-deazaguanosine; (16)..(16) 2′-deoxy-7-deazaguanosine; (20)..(20) 2′-deoxy-7-deazaguanosine)
antiviral activity compared with controls (SARS-CoV2 [1]; treatment condition 1: 24 h pre-treatment, then infection for 48 hours): None of the serial dilutions for treatment condition 1 (tilsotolimod 24 h pre-treatment) resulted in significant antiviral activity | reduction in TCID50 (SARS-CoV2 [1]; treatment condition 2: co-treatment with SARS-CoV2 for 48 hours, most effective dilution 0.41 μM): ~1 log | reduction in TCID50 (SARS-CoV2 [1]; treatment condition 3: supernatant of 24 h pretreated Calu3 cells added to fresh cells then infected, 1:10 serial dilution (33 μM)): ~3 log | number of immune cells in the mediastinal lymph nodes [2]: robust infiltration of immune cells; also recorded: robust changes in the number of immune cells | concentration above which tilsotolimod induced toxicity (Calu3 cells): above 3 μM | infectious SARS-CoV2 titer (TCID50/Lung) (SARS-CoV2 [3]; intranasal 2.5 mg/kg one day after virus exposure, lungs three days post-infection): reduced infection, although not statistically significant | toxicity in mice (SARS-CoV2 [3]; post-treatment group): No toxicity was observed | toxicity in mice (SARS-CoV2 [3]; pre-treatment group): one mouse died, and two showed signs of reduced mobility | viral load reductions (HCV; 0.16 mg/kg twice weekly plus ribavirin compared with pegIFN-α2a plus ribavirin): greater | rapid viral response (HCV; HCV-infected patients, all dose groups): none of the patients achieved rapid viral response | tolerability (HCV; subcutaneous 0.08, 0.16, 0.32 mg/kg once weekly and 0.16 mg/kg twice weekly, 4 weeks, with ribavirin): well tolerated with no discontinuations due to treatment-emergent adverse events | cytokine storm (HCV; tilsotolimod trials involving HCV): cytokine storm was not observed | tumor-specific CTLs in tracheobronchial lymph nodes [4]: significant increase | antitumor potency of intranasal relative to subcutaneous treatment [5]: approximately 25 times | Type I IFN pathway and dendritic cell maturation (tumor microenvironment; IFNα gene signature, MHC class I expression, patient biopsies): Activation of the Type I IFN pathway (induction of an IFNα gene signature) followed by maturation of dendritic cells | time to immune effects in the tumor microenvironment (tumor microenvironment; biopsies after receiving tilsotolimod): ≤ 24 h | CD8+ cytotoxic T lymphocytes and tumor response (tumor microenvironment; injected and non-injected tumors): systemic increases in CD8+ cytotoxic T lymphocytes (CTLs) with subsequent reduction of both injected and non-injected tumors
